Measured values published in PMC5844530, “Fosmetpantotenate (RE-024), a phosphopantothenate replacement therapy for pantothenate kinase-associated neurodegeneration: Mechanism of action and efficacy in nonclinical models” (PLoS ONE, 2018).

How the values were obtained:
[1] = Stability in simulated gastric fluid; format: in vitro ADME; conditions: simulated gi fluid, pH 1.2
Procedure: Stability in simulated gastric fluid: A stock solution of fosmetpantotenate or its individual diastereomers was prepared in 0.1% formic acid in methanol. Simulated gastric fluid, pH 1.2, was prepared with 2 g/L sodium chloride, 3.2 g/L of pepsin, and 0.7% (v/v) HCl. Gastric buffer, pH 1.2, was prepared containing 2 g/L sodium chloride and 0.7% (v/v) HCl. An appropriate aliquot of fosmetpantotenate or individual diastereomers to yield an initial concentration of 10 μM was added to both fluids, and samples were mixed at ~25°C on an orbital shaker. Aliquots (50 μL) were taken at 0, 2, and 4 h; added to 150 μL dimethyl sulfoxide (DMSO) containing an analytical internal standard; vortexed; and analyzed immediately by LC-MS/MS.
(§1) Bioanalysis for determinations of analyte stability: Samples were analyzed using a benchtop tandem quadrupole detector (TQD) mass spectrometer (Waters Ltd, Centennial Park, Hertfordshire). […] Suitable retention and peak shape with separation of the 2 diastereomers were obtained. The chromatography column was a Phenomenex-Kinetex XB C18 (2.10 x 50 mm; 2.6 μm), with a 0.7 mL/min flow rate and a 2 μL injection volume. […] The gradient was initiated with 20% B and increased linearly, reaching 40% B at 0.6 min, followed by 50% B at 0.8 min and by 95% B at 0.9 min. Conditions were kept isocratic through 1.2 min, returned to starting conditions (20% B) at 1.25 min, and maintained at 20% B through 1.5 min before the next injection. Since fosmetpantotenate is a mixture of diastereomers which are resolved chromatographically, the fosmetpantotenate MRM area corresponds to the sum of the MRM areas of the individual diastereomers.
(§2) The percent of compound remaining was determined from the MRM area response in each sample relative to that in the T = 0 samples (normalized for internal standard). Natural log plots of the percent compound remaining over time were used to determine the t½ of compound disappearance using the relationship t½ = -0.693/λ, where λ is the slope of the natural logarithm of the percent compound remaining vs time curve.

[2] = Metabolic stability in mouse whole blood; format: in vitro ADME; conditions: mouse, blood
Procedure: (§3) Metabolic stability in blood and liver microsomes: Fosmetpantotenate or its individual diastereomers (5 μM, n = 2, 37°C) were incubated in mouse, rat, cynomolgus monkey, and human whole blood. Samples (50 μL) were taken at 0, 5, 15, 30, and 60 min. Incubations of fosmetpantotenate or its individual diastereomers (1 μM, n = 2, 37°C) in pooled liver microsomes (0.25 mg protein/mL in 0.1 M phosphate buffer pH 7.4) were initiated with the addition of nicotinamide adenine dinucleotide phosphate (NADPH; 1 mM). Aliquots (100 μL) were obtained at 0, 5, 10, 20, and 40 min and added to 150 μL of 0.1% formic acid in acetonitrile-containing carbamazepine (0.5 μM) as an analytical internal standard, centrifuged, and the supernatants analyzed by LC-MS/MS.
as §1, §2

[3] = Metabolic stability in rat whole blood; format: in vitro ADME; conditions: rat, blood
Procedure: as §3, §1, §2

[4] = Metabolic stability in monkey whole blood; format: in vitro ADME, cynomolgus monkey; conditions: monkey, blood
Procedure: as §3, with “Samples (50 μL) were taken at 0, 5, 15, 30, and 60 min.” left out
as §1, §2

[5] = Metabolic stability in human whole blood; format: in vitro ADME; conditions: human, blood; for Percentage Remaining: 0 h
Procedure: as §3, §1, §2

[6] = test system: porcine brain endothelial cell (PBEC) co-culture model
Procedure: (§4) Permeability studies were performed after 2 days of co-culture with rat astrocytes. […] In each filter used for transport, a paracellular marker was included as an internal control to monitor the integrity of the cell monolayer. The day of the experiment, culture medium was removed and cells on Transwell inserts were pre-incubated for 30 min with Hank's Balanced Salt Solution (HBSS) containing 20 mM Hepes pH 7.4 and 0.1% bovine serum albumin (BSA). […] Aliquots from the basal compartment were taken after 1 h; fluorescence was measured using a fluorescence detector. The permeability coefficient of the total system was calculated as follows: P[cm/s]=Vd×ΔMr/A×Md×Δt Where:
(§5) To correct for the contribution of the porous polycarbonate membrane of the filter in the absence of cells, the permeability was also determined for the cell-free system. Contribution of the endothelial cell monolayer to the permeability of the cell and filter system was determined by the following equation: 1/Pe=1/Pt-1/Pf Where the total permeability of the system is denoted as Pt, the cell-free filter as Pf, and the endothelial cell layer alone as Pe. The total resistance of the system towards passage of a substance is composed of 2 resistances in series: that of the cell monolayer and that of the filter; permeability is estimated as 1/resistance [27]. […] Mass balance was determined based on the amount of compound recovered in the donor and receiver chamber at the end of the assay relative to the amount added to the donor chamber at time 0.

[7] = Microdialysis (brain striatal dialysate) in C57Bl6 mice; conditions: striatal dialysate; oral dose at 700 mg/kg; all samples; 700 mg/kg
Procedure: Mice were anesthetized using isoflurane (2%, 800 mL/min O2).
For oral dosing experiments, MetaQuant microdialysis probes (regenerated cellulose membrane, BrainLink, the Netherlands) were inserted into the striatum (3 mm exposed surface). Coordinates for the tips of the probes for mice were anterior-posterior (AP) = +0.8 mm from bregma, lateral (L) = -1.7 mm from midline, and ventral (V) = -4.0 mm from dura, the toothbar set at 0 mm.
Microdialysis animal dosing and sample collection: Adult non-fasted male C57Bl6 mice (20–29 g; Harlan Laboratories, Livermore, CA), and Macaca fascicularis (4–9 kg, 3–6 yr old) were used for the experiments. For oral dosing, fosmetpantotenate was formulated as a solution in 20% hydroxypropyl-beta-cyclodextrin in 50 mM citrate buffer in water pH 5.0 and administered using a dose volume of 10 mL/kg. Mice (N = 6 serially sampled) received fosmetpantotenate as a single oral dose at 700 mg/kg and monkeys received a single oral dose at either 100 mg/kg (N = 4 serially sampled) or 300 mg/kg (N = 2 serially sampled).
Microdialysis: On the morning of the microdialysis experiment, a MetaQuant probe was inserted into the guide shaft targeting the head of the caudate nucleus and perfused at a rate of 0.15 μL/min aCSF containing 0.2% (w/v) BSA, with a carrier flow of 0.8 μL/min of ultrapure water.
A single 30 min pre-dose basal dialysate sample was collected from mice over -0.5 to 0 h, and three 30 min basal samples from monkeys over -1.5 to 0 h. Fosmetpantotenate was administered at t = 0, and 30 min dialysate samples were collected for an additional 4 h for mice and 3 h for monkeys.
Sample preparation for mouse dialysate samples: Concentrations of fosmetpantotenate, PA, and PPA in mouse dialysate were determined by Nextcea, Inc, Woburn, MA, using LC-MS/MS. Standard curves and QC samples containing fosmetpantotenate (D1 and D2) and the surrogate analytes for PA and PPA (^15N/^13C3-PA and ^15N/^13C3-PPA) were prepared fresh in 0.1% formic acid in water. Frozen study mouse dialysate samples were thawed in ice/water bath. Standards, QC samples, and thawed study dialysate samples (20 μL) were mixed with 20 μL 0.1% formic acid in water containing internal standard (50 ng/mL of ^15N/^13C3-fosmetpantotenate) and analyzed by LC-MS/MS.
LC-MS/MS analysis for mouse dialysate samples: Concentrations of fosmetpantotenate, PA, and PPA in dialysate from mice were determined by using LC-MS/MS conditions described for blood PK analysis by Nextcea, except dialysate samples were analyzed using an ACIEX API 5000 and flow rate was increased to 0.6 mL/min.
Quantitation of in vivo samples: Peak areas were integrated using Analyst software (AB Sciex, Concord, Ontario, Canada). Calibration curves for all blood samples from mouse and rat PK studies and mouse dialysate samples were prepared by plotting the analyte to internal standard (^15N/^13C3-fosmetpantotenate) peak area ratio vs concentration.

[8] = in vitro; conditions: pH 7.4, In Vitro Measured Papp
Procedure: as §4, §5

[9] = test system: liver and brain CoA; experiment: Labeled experiments: incorporation of isotopically labeled fosmetpantotenate into CoA; format: in vivo, mouse; conditions: for Liver CoA (%) +4 AMU / Liver CoA (%) +6 AMU / Liver CoA (%) Unlabeled: 500 mg/kg PO
From the text: Fosmetpantotenate was labeled with three ^13C and one ^15N in the PA moiety and with one ^18O in the phosphate moiety, as indicated in Fig 10. The premise of this experiment is the following: if PPA incorporated into CoA originates from fosmetpantotenate metabolism, then all isotope labels (including the ^18O) will be retained in the CoA molecule, resulting in an increase in molecular weight of 6 atomic mass units (AMU) with respect to unlabeled CoA ([M+H]^+ = 774.3 vs 768.3, respectively; Fig 10, Path A). However, if fosmetpantotenate is hydrolyzed to PA, and PA is then re-phosphorylated by WT PanK to yield PPA, or if the ^18O is exchanged with water, then the ^18O would be lost in the process, resulting in a CoA molecule with a 4-AMU increase in molecular weight over unlabeled CoA ([M+H]^+ = 772.3 vs 768.3, respectively, […], Path B). CoA derived from endogenous PA/PPA will have the unchanged molecular weight ([M+H]^+ = 768.3).
Animal phase: C57BL6N mice, 8-week old and 19 to 21 g obtained from Charles River (Como, Italy) were used in these studies. One group of mice (N = 3 per time point) received a single oral dose of 500 mg/kg isotopically labeled fosmetpantotenate dissolved in 20% hydroxypropyl-β-cyclodextrin. Another set of mice (N = 8 per time point) received a direct administration of isotopically labeled fosmetpantotenate at 125 μg (25 mg/mL of aCSF containing 147 mM NaCl, 3.0 mM KCl, 1.2 mM CaCl2, and 1.2 mM MgCl2) via cannula into striatum. Brain, liver, and blood samples were collected at pre-dose, 6 h, 12 h (brain only), and 24 h, and were snap frozen in liquid nitrogen.
Two additional groups of mice (N = 6 per time point for each group) received 3 daily doses (8 am, 2 pm, and 8 pm to mimic an anticipated human dosing schedule) of isotopically labeled fosmetpantotenate at either 1.25 μg (0.625 mg/mL aCSF) or 12.5 μg (6.25 mg/mL aCSF) via ICV infusion cannula (2 μL), for up to 10 consecutive days. Brain (striatum) samples were collected at pre-dose, and at 12 h following the third dose on days 1, 3, 7, and 10, and were snap frozen in liquid nitrogen.
Sample processing: Brain (striatum) and liver tissues were homogenized in a Precellys homogenizer (Bertin technologies, Montigny-le-Bretonneux, France) with 3 volumes of water for each volume of tissue (1:4 dilution). Protein was precipitated by adding 500 μL methanol to 100 μL of homogenate (1:6 dilution), mixed well, and centrifuged. Blood cells (1 volume) were treated with 1:8 v:v water:methanol (1:10 dilution), mixed, and centrifuged. The supernatants (200 μL for brain and blood cells and 100 μL for liver) were dried under nitrogen, reconstituted with 100 μL ammonium acetate 10 mM (pH ~5), and injected (10 μL) into the LC for high resolution mass spectrometry (HRMS) analyses.
CoA determination: An Acquity UPLC (Waters) system was used. Samples were chromatographed on a Luna C18 column (50 x 2.0 mm; 5 μm), with a 0.4 mL/min flow rate and a 10 μL injection volume. The mobile phases were (A), 10 mM ammonium acetate in water, pH 6.8 and (B) acetonitrile:2-propanol (9:1; v:v). The gradient was started with 2% (B) and was increased linearly to reach 20% (B) at 5 min; the gradient was ramped to reach 90% (B) at 5.1 min and kept isocratic at 90% (B) through 7.1 min.
The detector was a Waters QTOF Synapt mass spectrometer, with an electrospray ion source operating in the positive scanning mode acquiring in full scan mode (accuracy <5 ppm). The following exact masses were determined: 768.1230 for CoA, 772.1301 for CoA +4 AMU, and 774.1344 for CoA +6 AMU.
The CoA levels obtained by MS/MS analyses were corrected for ^18O isotopic incorporation. CoA levels were not adjusted for the 1% and 2% of ^12C and ^14N, respectively, in the labeled fosmetpantotenate. […]

COC(=O)CCNC(=O)[C@H](O)C(C)(C)COP(=O)(N[C@@H](C)C(=O)OC)Oc1ccccc1 (single isomer, unassigned) [Compound D1]
half-life (t½) in simulated gastric fluid [1]: > 600 min | Mean half-life [2]: <5 min | Percentage Remaining ([2]; 0 h): 100% | Percentage Remaining ([2]; 5 min): 0% | Percentage Remaining ([2]; 0.25 h): 0% | Mean half-life [3]: <5 min | Percentage Remaining ([3]; 0 h): 100% | Percentage Remaining ([3]; 0.5 h): 0% | Mean half-life [4]: 35 min | Percentage Remaining ([4]; 0 h): 100% | Percentage Remaining ([4]; 5 min): 88% | Mean half-life [5]: 44 min | Percentage Remaining [5]: 100% | In Vitro Measured Papp [6]: 4.8 ± 1.8 10^−6 cm/s | Dialysate Conc [7]: < 4.72 nM

COC(=O)CCNC(=O)[C@H](O)C(C)(C)COP(=O)(N[C@@H](C)C(=O)OC)Oc1ccccc1 (single isomer, unassigned) [Compound D2]
half-life (t½) in simulated gastric fluid [1]: > 600 min | Mean half-life [2]: <5 min | Percentage Remaining ([2]; 0 h): 100% | Percentage Remaining ([2]; 5 min): 1% | Percentage Remaining ([2]; 0.25 h): 1% | Mean half-life [3]: <5 min | Percentage Remaining ([3]; 0 h): 100% | Percentage Remaining ([3]; 0.5 h): 0% | Percentage Remaining ([3]; 1 h): 0% | Mean half-life [4]: 17 min | Percentage Remaining ([4]; 0 h): 100% | Percentage Remaining ([4]; 2 h): 1% | Mean half-life [5]: >95 min | Percentage Remaining [5]: 100% | In Vitro Measured Papp [6]: 4.0 ± 1.3 10^−6 cm/s | Dialysate Conc [7]: < 3.36 nM

Cn1c(=O)c2c(ncn2C)n(C)c1=O [Caffeine]
Papp at 1 h [8]: 34.3 ± 3.1 ×10⁻⁶ cm/s

N[C@@H](Cc1ccc(O)c(O)c1)C(=O)O [L-DOPA, S-3,4-dihydroxyphenylalanine, reference compound]
blood-brain barrier permeability classification [6]: moderate permeability range | Papp at 1 h [8]: 5.8 ± 1.9 ×10⁻⁶ cm/s

OC[C@@H](O)[C@@H](O)[C@H](O)[C@H](O)CO [Mannitol, reference compound]
blood-brain barrier permeability classification [6]: low end of permeability range | Papp at 1 h [8]: 2.2 ± 0.7 ×10⁻⁶ cm/s

COC(=O)C(C)NP(=[18O])(OCC(C)(C)C(O)C(=O)[15NH][13CH2][13CH2][13C](=O)OC)Oc1ccccc1 (centres unmarked) [isotopically-labeled fosmetpantotenate]
Brain CoA (%) +4 AMU ([9]; 1.25 μg ICV, dose day 3): 0% | Brain CoA (%) +6 AMU ([9]; 1.25 μg ICV, dose day 3): 0% | Brain CoA (%) Unlabeled ([9]; 1.25 μg ICV, dose day 3): 100% | Brain CoA (%) +4 AMU ([9]; 1.25 μg ICV, dose day 7): 5% | Brain CoA (%) +6 AMU ([9]; 1.25 μg ICV, dose day 7): 4% | Brain CoA (%) Unlabeled ([9]; 1.25 μg ICV, dose day 7): 91% | Brain CoA (%) +4 AMU ([9]; 1.25 μg ICV, dose day 10): 8% | Brain CoA (%) +6 AMU ([9]; 1.25 μg ICV, dose day 10): 6% | Brain CoA (%) Unlabeled ([9]; 1.25 μg ICV, dose day 10): 86% | Brain CoA (%) +4 AMU ([9]; 12.5 μg ICV, dose day 3): 8% | Brain CoA (%) +6 AMU ([9]; 12.5 μg ICV, dose day 3): 15% | Brain CoA (%) Unlabeled ([9]; 12.5 μg ICV, dose day 3): 77% | Brain CoA (%) +4 AMU ([9]; 12.5 μg ICV, dose day 7): 14% | Brain CoA (%) +6 AMU ([9]; 12.5 μg ICV, dose day 7): 27% | Brain CoA (%) Unlabeled ([9]; 12.5 μg ICV, dose day 7): 59% | Brain CoA (%) +4 AMU ([9]; 12.5 μg ICV, dose day 10): 16% | Brain CoA (%) +6 AMU ([9]; 12.5 μg ICV, dose day 10): 28% | Brain CoA (%) Unlabeled ([9]; 12.5 μg ICV, dose day 10): 56% | Brain CoA (%) +6 AMU ([9]; 12.5 μg ICV, dose day 10, listed as isotopically labeled-fosmetpantotenate): ~ 30% | Brain CoA (%) +4 AMU ([9]; 125 μg intrastriatally, 6 h): 2.8% | Brain CoA (%) +6 AMU ([9]; 125 μg intrastriatally, 6 h): 36.2% | Brain CoA (%) Unlabeled ([9]; 125 μg intrastriatally, 6 h): 61% | Brain CoA (%) +4 AMU ([9]; 125 μg intrastriatally, 12 h): 3.6% | Brain CoA (%) +6 AMU ([9]; 125 μg intrastriatally, 12 h): 46.4% | Brain CoA (%) Unlabeled ([9]; 125 μg intrastriatally, 12 h): 50% | Brain CoA (%) +4 AMU ([9]; 125 μg intrastriatally, 24 h): 4.3% | Brain CoA (%) +6 AMU ([9]; 125 μg intrastriatally, 24 h): 50.7% | Brain CoA (%) Unlabeled ([9]; 125 μg intrastriatally, 24 h): 45% | Brain CoA (%) +6 AMU ([9]; 125 μg intrastriatally, 24 h, listed as isotopically labeled-fosmetpantotenate): ~ 50% | Liver CoA (%) +4 AMU ([9]; 6 h): 1.4% | Liver CoA (%) +6 AMU ([9]; 6 h): 40% | Liver CoA (%) Unlabeled ([9]; 6 h): 58.6% | Liver CoA (%) +6 AMU ([9]; 6 h, listed as isotopically labeled-fosmetpantotenate): ~ 40% | Liver CoA (%) +4 AMU ([9]; 24 h): 8.4% | Liver CoA (%) +6 AMU ([9]; 24 h): 34% | Liver CoA (%) Unlabeled ([9]; 24 h): 58% | Liver CoA (%) +4 AMU ([9]; 24 h, listed as isotopically labeled fosmetpantotenate): 8% | incorporation of fosmetpantotenate-derived PPA in brain CoA ([9]; 500 mg/kg single oral administration): not observed
